From US20040072824A1, “Methods and compositions for the treatment of cancer” (priority 2001, published 2004)
Where two headings read alike, the source gives them in different places.

How the values were obtained:
[1] = system: K562, U937, MDA-DB231, BT20 and MCF7 cell lines; assay: Cytotoxic effects in multi-well plate, 6 days, ATP level (CellTiter-Glo); conditions: 2x10^-9 M to 2x10^-4 M
Procedure: In order to test the cytotoxic effects of various compounds, a test was developed in a multi-well plate. Two leukemic cell lines, namely K562 and U937, and three breast cancer cell lines, namely MDA-DB231, BT20 and MCF7 were used for this test.
The cells were seeded at low density and were left for 24 hours to recover and reach a new logarithmic phase of growth. Various concentrations of the compounds being tested, ranging from 2×10^−9 M to 2×10^−4 M, were added in triplicate. The mixture was incubated for 6 days, during which approximately 4 doublings of the cell population occurred, to allow the cells to reach subconfluence.
The viability of the cultured cells after the treatment by the compounds was determined by quantifying the level of ATP since the level of ATP is directly proportional to the number of viable cells present in the culture. The ATP level was quantified by using CellTiter-Glo™ (Promega) luminescent test for cell viability.

[2] = system: blastic cells from AML patients; assay: Inhibition of viability of fresh leukemic cells (trypan blue exclusion); type: cell-based, human; conditions: Homo sapiens, day 3; for cytotoxicity at 10 µM: 10^-5 M; for cytotoxicity at 1 µM: 10^-6 M
Procedure: Samples for AML 1 through 5, AML 1 being the least and AML 5 being the most differentiated, were obtained. […] Cells were incubated with or without […] anti-histamine derivatives. Polaramine was included as a negative control. Cell counts were assessed by trypan blue exclusion test at day 3 after the incubation. Morphological analysis was performed using Wright-Giemsa staining on cytocentrifuge preparations. The results were expressed as % inhibition of growth as compared to negative control.

U937 = type: in vivo; conditions: for toxicity for the animals: mouse, in vivo; for tumor growth compared to the negative control: treatment from day 1, cells inoculated after more than 24 hours, daily administration
Procedure: The second protocol was designed to test the preventive effects of the compounds of this invention on tumorigenesis. In this protocol, the animals have been treated with various compounds of the present invention on day 1. After more than 24 hours, tumoral cells were inoculated. The administration of the compounds of this invention was maintained daily. The cell line used for this test was U937.

[3] = system: MDA-MB-231 (breast cancer line); assay: Curative effects on palpable tumors, MDA-MB-231 cells in scid/scid mice; type: in vivo; conditions: for tumor growth: daily once tumors palpable, at least at the higher concentration tested; for death of test animals: higher dosage
Procedure: In this series of experiments, effects of various compounds of the present invention on tumor development were tested using two protocols. The first protocol is directed to the testing of curative effects of these compounds in different cell lines. In this protocol, cancerous cells are inoculated to the animals, and the inoculated animals were left without any further treatment until the development of tumors. As soon as the tumors became palable (4 mm^3), the compounds of this invention were administered daily to the animals.

[4] = 72 h, MEAN over AML patients, read-out: In Vitro Percent Inhibition of Viability, MEAN
[5] = 72 h, patient ID 3, FAB AML2, read-out: In Vitro Percent Inhibition of Viability
[6] = 72 h, patient ID 4, FAB AML2, read-out: In Vitro Percent Inhibition of Viability
[7] = 72 h, patient ID 5, FAB AML2, read-out: In Vitro Percent Inhibition of Viability
[8] = 72 h, patient ID 10, FAB AML4, read-out: In Vitro Percent Inhibition of Viability
[9] = 72 h, patient ID 11, FAB AML5, read-out: In Vitro Percent Inhibition of Viability
[10] = 72 h, patient ID 12, FAB AML5, read-out: In Vitro Percent Inhibition of Viability
[11] = 72 h, patient ID 13, FAB AML5, read-out: In Vitro Percent Inhibition of Viability
[12] = 72 h, patient ID 14, FAB AML5, read-out: In Vitro Percent Inhibition of Viability
[13] = 72 h, patient ID 15, FAB AML5, read-out: In Vitro Percent Inhibition of Viability
[14] = AML1, 72 h, patient ID 1, FAB AML1, read-out: In Vitro Percent Inhibition of Viability
[15] = AML1, 72 h, patient ID 2, FAB AML1, read-out: In Vitro Percent Inhibition of Viability
[16] = AML3, 72 h, patient ID 6, FAB AML3, read-out: In Vitro Percent Inhibition of Viability
[17] = AML3, 72 h, patient ID 7, FAB AML3, read-out: In Vitro Percent Inhibition of Viability
[18] = AML3, 72 h, patient ID 8, FAB AML3, read-out: In Vitro Percent Inhibition of Viability
[19] = AML3, 72 h, patient ID 9, FAB AML3, read-out: In Vitro Percent Inhibition of Viability

SMILES | cytotoxic effect group [1] | cytotoxicity at 10 µM [2, 4] | cytotoxicity at 1 µM [2, 4] | cytotoxicity at 10 µM [2, 5] | cytotoxicity at 1 µM [2, 5] | cytotoxicity at 10 µM [2, 6] | cytotoxicity at 1 µM [2, 6] | cytotoxicity at 10 µM [2, 7] | cytotoxicity at 1 µM [2, 7] | cytotoxicity at 10 µM [2, 8] | cytotoxicity at 1 µM [2, 8] | cytotoxicity at 10 µM [2, 9] | cytotoxicity at 1 µM [2, 9] | cytotoxicity at 10 µM [2, 10] | cytotoxicity at 10 µM [2, 11] | cytotoxicity at 1 µM [2, 11] | cytotoxicity at 10 µM [2, 12] | cytotoxicity at 1 µM [2, 12] | cytotoxicity at 10 µM [2, 13] | cytotoxicity at 1 µM [2, 13] | further results
Fc1ccc([C@@H]2CCNC[C@H]2COc2ccc3c(c2)OCO3)cc1 [A37, Paroxetine] | I | 55% | 24% | 67% | 25% | 62% | 21% | 43% | 6% | 50% | 39% | 32% | 39% | 76% | 53% | 53% | 33% | 35% | 41% | 9% | cytotoxicity at 10 µM [2, 14]: 50%; cytotoxicity at 1 µM [2, 14]: 0%; cytotoxicity at 10 µM [2, 15]: 41%; cytotoxicity at 1 µM [2, 15]: 25%; cytotoxicity at 10 µM [2, 16]: 54%; cytotoxicity at 1 µM [2, 16]: 19%; cytotoxicity at 10 µM [2, 17]: 63%; cytotoxicity at 1 µM [2, 17]: 3%; cytotoxicity at 10 µM [2, 18]: 56%; cytotoxicity at 1 µM [2, 18]: 12%; cytotoxicity at 10 µM [2, 19]: 97%; cytotoxicity at 1 µM [2, 19]: 53%; toxicity for the animals (U937): toxic for the animals; tumor growth compared to the negative control (U937): decrease in tumor growth; tumor growth [3]: decreased tumor growth; death of test animals [3]: caused the death of certain test animals
OCCN1CCN(CCCN2c3ccccc3Sc3ccc(Cl)cc32)CC1 [S64, perphenazine] | I | 36% | 11% | 31% | 12% | 27% | 25% | 26% | 3% | 42% | 36% | 57% | 7% | 54% | 47% | 0% | 23% | 18% | 17% | 8% | cytotoxicity at 10 µM [2, 14]: 17%; cytotoxicity at 1 µM [2, 14]: 8%; cytotoxicity at 10 µM [2, 15]: 32%; cytotoxicity at 1 µM [2, 15]: 0%; cytotoxicity at 10 µM [2, 16]: 35%; cytotoxicity at 1 µM [2, 16]: 24%; cytotoxicity at 10 µM [2, 17]: 45%; cytotoxicity at 1 µM [2, 17]: 0%; cytotoxicity at 10 µM [2, 18]: 50%; cytotoxicity at 1 µM [2, 18]: 18%; cytotoxicity at 10 µM [2, 19]: 35%; cytotoxicity at 1 µM [2, 19]: 0%; tumor volume ([3]; 2.5 mg/kg daily once tumors palpable): regression of the tumor volume
CN[C@H]1CC[C@@H](c2ccc(Cl)c(Cl)c2)c2ccccc21 [SQ42, sertraline] | I | 61% | 24% | 83% | 16% | 84% | 18% | 26% | 46% | 53% | 39% | 68% | 46% | 73% | 42% | 11% | 38% | 25% | 78% | 0% | cytotoxicity at 10 µM [2, 14]: 42%; cytotoxicity at 1 µM [2, 14]: 17%; cytotoxicity at 10 µM [2, 15]: 59%; cytotoxicity at 1 µM [2, 15]: 20%; cytotoxicity at 10 µM [2, 16]: 35%; cytotoxicity at 1 µM [2, 16]: 11%; cytotoxicity at 10 µM [2, 17]: 82%; cytotoxicity at 1 µM [2, 17]: 15%; cytotoxicity at 10 µM [2, 18]: 72%; cytotoxicity at 1 µM [2, 18]: 36%; cytotoxicity at 10 µM [2, 19]: 79%; cytotoxicity at 1 µM [2, 19]: 38%; toxicity for the animals (U937): toxic for the animals; tumor growth compared to the negative control (U937): decrease in tumor growth; tumor growth [3]: decreased tumor growth; death of test animals [3]: caused the death of certain test animals
